Series [1] has as its target T1, human cloned 5-HT2B receptors (Homo sapiens, UniProt P41595).
T1 construct: expressed in transfected cells; host or cells: CHO-K1 cells
In words: Human cloned 5-HT2B receptor binding assay ([3H]LSD, CHO-K1 membranes). The settings on record: displacement of [3H]LSD (1 nM), read-out: 5-HT2B pKi (converted). The procedure: The binding affinity of the compounds for human cloned 5-HT2B receptors was determined using the following assay.
CHO-K1 cells expressing cloned 5-HT2B receptor were maintained in Ultra-CHO medium containing 400 μg/ml of G418, 100 U/ml penicillin, 100 μg/ml streptomycin, 2.5 μg/ml fungizone and 1% foetal bovine serum, in 95/5% O2/CO2 at 37° C. The cells were harvested using 0.25% trypsin and were centrifuged at 800 rpm for 8 minutes. The cells were homogenised in 50 mM HEPES buffer containing 1 mM disodium EDTA and 1 mM PMSF at pH 7.4, using a Dounce homogeniser (20 strokes). The homogenate was centrifuged at 2280 rpm (1000 g) and 4° C. for 10 minutes, after which the supernatant was removed by decanting. The pellet was re-homogenised as above, and the resulting supernatant removed and combined with that already obtained. The supernatant solution was then centrifuged at 18300 rpm (40000 g) for 10 minutes at 4° C. using a Sorvall centrifuge. The supernatant was removed, and the pellet was re-suspended in 50 mM buffer at pH 7.4 using a Ultra-turrax T25 Polytron, before centrifugation again at 40000 g as above. This wash procedure was repeated, after which the membrane preparation was stored at a concentration of 1 mg/ml at −80° C. until use.
The membranes were thawed rapidly and diluted in assay buffer containing Tris-HCl (50 mM, pH 7.4), ascorbic acid (0.1%) and calcium chloride (4 mM). The membranes were homogenised to resuspend them, prior to adding 10 or 15 μg of membranes to assay wells containing [^3H]LSD (1 nM), assay buffer (50 mM Tris, 4 mM calcium chloride and 0.1% ascorbic acid) containing pargyline (10 μM), and the test compounds (1×10^−10 to 1×10^−4M). Non specific binding was determined in the presence of 100 μM 5-HT. After 30 minutes incubation at 37° C., the assay mixture was filtered through a combination of GF-C and GF-B filters, pre-soaked in 1% polyethyleneimine, using a Brandel cell harvester, and were washed three times using 50 mM Tris-HCl. Radioactivity retained on the filters was determined by liquid scintillation counting. For each test compound, the concentration that inhibited binding of [3H]LSD by 50% was determined using curve fitting software (Prism). Kd values (concentration of LSD required to occupy 50% of the receptor binding sites at equilibrium) determined from saturation binding studies were then used to calculate inhibition dissociation constants (Ki) using the following equation: […]
This approach follows that set out in Kenakin, T.P. Pharmacologic analysis of drug-receptor interaction. Raven Press, New York, 2nd Edition.

Series [2] deals with T2, cloned human 5-HT2A receptor (Homo sapiens, UniProt P28223).
T2 construct: purchased Euroscreen; host or cells: CHO-K1 cells
Kind of series: Human 5-HT2A receptor binding assay ([3H]ketanserin, CHO-K1 membranes). To be noted: displacement of [3H]ketanserin (1 nM), read-out: 5-HT2A pKi (converted). The procedure: (§1) The binding affinity of ligands for human 5-HT2A and 5-HT2C receptors was determined using the following assay.
Membrane preparations from CHO-K1 cells expressing the cloned human 5-HT2A receptor were obtained (Euroscreen). The membranes were thawed rapidly and diluted in assay buffer containing Tris-HCl (50 mM, pH 7.7). The membranes were resuspended by homogenisation, prior to adding 15 μg of membranes to assay wells containing [3H] ketanserin (1 nM), assay buffer (50 mM Tris at pH 7.4) containing pargyline (10 μM), and test compounds (1×10^−10 to 1×10^−4M). Non specific binding was determined in the presence of 100 μM mianserin. After 15 minutes incubation at 37° C., the assay mixture was filtered through a combination of GF-C and GF-B filters, pre-soaked in 0.05% Brij, using a Brandel cell harvester, and were washed three times using ice cold Tris-HCl buffer (50 mM). Radioactivity retained on the filters was determined by liquid scintillation counting. For each test compound, the concentration that inhibited binding of [^3H]ketanserin by 50% was determined using curve fitting software (Prism). Kd values (concentration of ketanserin required to occupy 50% of the receptor binding sites at equlibrium) determined from saturation binding studies were then used to calculate inhibition dissociation constants (Ki) using the following equation: […]

For series [3], the target named is T3, cloned human 5-HT2C receptor (Homo sapiens, UniProt P28335).
T3 construct: purchased Euroscreen; host or cells: CHO-K1 cells
T3 sequence (P28335 33-458): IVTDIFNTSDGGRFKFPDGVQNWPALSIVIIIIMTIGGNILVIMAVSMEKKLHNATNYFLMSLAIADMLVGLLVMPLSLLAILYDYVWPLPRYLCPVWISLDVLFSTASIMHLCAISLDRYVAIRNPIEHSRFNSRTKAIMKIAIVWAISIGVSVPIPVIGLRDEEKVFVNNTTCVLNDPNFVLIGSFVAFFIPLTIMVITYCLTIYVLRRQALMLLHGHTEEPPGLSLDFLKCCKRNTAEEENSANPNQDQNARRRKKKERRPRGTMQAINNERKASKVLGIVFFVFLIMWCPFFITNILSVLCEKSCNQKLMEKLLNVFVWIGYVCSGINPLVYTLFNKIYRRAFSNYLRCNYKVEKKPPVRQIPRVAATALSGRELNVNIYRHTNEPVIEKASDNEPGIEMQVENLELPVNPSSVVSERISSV
Kind of series: Human 5-HT2C receptor binding assay ([3H]mesulergine, CHO-K1 membranes). To be noted: displacement of [3H]mesulergine (1 nM), read-out: 5-HT2C pKi (converted). The procedure:
as §1
Membrane preparations from CHO-K1 cells expressing the cloned human 5-HT2C receptor were obtained (Euroscreen). The membranes were thawed rapidly and diluted in assay buffer containing Tris-HCl (50 mM, pH 7.7), ascorbic acid (0.1%) and pargyline (10 μM). The membranes were resuspended by homogenisation, prior to adding 6 μg of membranes to assay wells containing [^3H] mesulergine (1 nM), assay buffer (50 mM Tris at pH 7.7 and 0.1% ascorbic acid) containing pargyline (10 μM), and test compounds (1×10^−10 to 1×10^−4M). Non specific binding was determined in the presence of 100 μM mianserin. After 30 minutes incubation at 37° C., the assay mixture was filtered through a combination of GF-C and GF-B filters, pre-soaked in 1% bovine serum albumin, using a Brandel cell harvester, and were washed three times using ice cold Tris-HCl buffer (50 mM). Radioactivity retained on the filters was determined by liquid scintillation counting. For each test compound, the concentration that inhibited binding of [3H]mesulergine by 50% was determined using curve fitting software (Prism). Kd values (concentration of mesulergine required to occupy 50% of the receptor binding sites at equlibrium) determined from saturation binding studies were then used to calculate inhibition dissociation constants (Ki) using the following equation: […]
In general terms: Loss of bound radioactivity is the signal in a displacement assay; it reports binding, not function.

Series [4] concerns the target T1, human cloned 5-HT2B receptors. Kind of series: Human cloned 5-HT2B cell-based functional assay (Fluo-4, CHO.K1 cells). To be noted: inhibition of 5-HT response, CHO.K1 cells expressing cloned 5-HT2B, Fluo-4 AM. The procedure:
The following describes an in vitro functional assay using human cloned 5-HT2B receptors to determine the ability of compounds to block the receptor. CHO.K1 cells expressing cloned 5-HT2B receptor were maintained In Ultra-CHO medium containing 400 μg/ml of G418, 100 U/ml penicillin, 100 μg/ml streptomycin, 2.5 μg/ml fungizone, in 95/5% O2/CO2 at 37° C. Ultra-CHO medium additionally supplemented with 1% foetal bovine serum was used when seeding the cells and removed after 5 hours. Cells were plated in Costar 96 well white, clear-bottomed plate at a density of 50,000 cells per well and incubated for at least 24 hours in 95/5% O2/CO2 at 37° C. before running the assay. Media was removed from the wells and 200 μl of 4 μM Fluo-4 AM added, this was incubated in a Wallace Victor 2V workstation at 37° C. for 30 minutes. The Fluo-4 AM was then removed from the wells, which were then washed twice with 200 μl of buffer (HBSS without calcium/magnesium/phenol red, 20 mM HEPES, 1 mM Ca^2+, 1 mM Mg^2+, 2.5 mM probenecid, pH to 7.4), 180 μl of buffer or test compound was added to the well and incubated for 30 minutes. The Victor 2V injectors were used to inject 20 μl of 5-HT after obtaining 10 0.1-second baseline readings at 535 nm, followed by 150 readings. All test compounds were aliquoted in 100% DMSO at 10 mM and diluted to 1 mM in 50% DMSO, subsequent dilutions were made using buffer. Buffer was also used to dilute the 5-HT. Data were analysed using Microsoft Excel and GraphPad Prism, with the latter used to produce sigmoidal dose-response curves for each compound. The compound concentration that inhibited the 5-HT response by 50% was taken (IC50-M), and the results are shown in Table 3, as pIC50, being the negative log (to the base 10) of the measured IC50 values.

Molecules are shown by their SMILES.

Data on 4 compounds can be found in patent US7429607B2, “5-HT2B receptor antagonists” (Asterand UK Limited, priority 2002, dated 2008).

For orientation: IC50 means the concentration needed to halve the response being measured. Low values mean greater potency in that assay, high ones weaker potency in that assay. In general, melting point refers to the temperature, or range, at which the solid turns liquid.

T1 sequence (P41595 whole entry): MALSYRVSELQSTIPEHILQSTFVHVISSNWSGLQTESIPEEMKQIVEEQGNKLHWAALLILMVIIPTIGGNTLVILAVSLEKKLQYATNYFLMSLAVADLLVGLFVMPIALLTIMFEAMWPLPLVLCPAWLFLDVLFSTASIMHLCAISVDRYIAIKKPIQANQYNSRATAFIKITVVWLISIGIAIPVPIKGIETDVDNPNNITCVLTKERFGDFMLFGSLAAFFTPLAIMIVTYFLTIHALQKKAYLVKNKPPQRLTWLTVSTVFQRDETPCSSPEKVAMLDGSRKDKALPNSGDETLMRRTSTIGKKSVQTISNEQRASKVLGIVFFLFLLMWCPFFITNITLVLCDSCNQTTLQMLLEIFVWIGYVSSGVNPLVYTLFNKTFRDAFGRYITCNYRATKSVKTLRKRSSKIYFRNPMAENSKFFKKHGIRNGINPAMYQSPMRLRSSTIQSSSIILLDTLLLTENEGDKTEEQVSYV
T2 sequence (P28223 whole entry): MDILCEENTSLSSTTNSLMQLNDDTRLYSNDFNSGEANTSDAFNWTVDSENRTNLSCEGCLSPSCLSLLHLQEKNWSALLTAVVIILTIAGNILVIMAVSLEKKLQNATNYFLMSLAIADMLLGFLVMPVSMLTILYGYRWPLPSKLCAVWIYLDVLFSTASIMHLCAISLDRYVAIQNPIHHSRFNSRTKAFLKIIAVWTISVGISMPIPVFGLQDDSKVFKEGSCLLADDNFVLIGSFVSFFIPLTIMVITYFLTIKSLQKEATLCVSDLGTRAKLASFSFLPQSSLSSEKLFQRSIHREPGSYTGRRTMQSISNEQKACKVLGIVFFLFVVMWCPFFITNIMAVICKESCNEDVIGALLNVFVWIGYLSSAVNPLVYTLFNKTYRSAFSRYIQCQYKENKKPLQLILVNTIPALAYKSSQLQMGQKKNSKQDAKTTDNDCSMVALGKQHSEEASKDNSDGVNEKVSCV

`CNc1nc(-c2cccc3ccccc23)co1` [Compound 2, 2-methylamino-4-(naphth-1-yl)oxazole] came in with a melting point of 164 to 166 °C. The Ki in series [1] is < 1 µM. In series [2], the Ki was > 10 µM. Besides, the Ki in series [3] is > 1 µM. In series [4], the IC50 is < 10 µM.

Regarding `Cc1nc(N)oc1-c1cccc2ccccc12` [Compound 3, 2-amino-4-methyl-5-(naphth-1-yl)oxazole], the melting point was 187 to 189 °C. Besides, in series [1], the Ki was < 0.01 µM. Also, the Ki in series [2] is > 10 µM. The Ki in series [3] is > 10 µM. For the same compound, the IC50 in series [4] was < 0.1 µM.

Consider `Nc1nc(-c2ccc3ccccc3c2)co1` [Compound 16, 4-naphthalen-2-yl-oxazol-2-ylamine], for which the Ki in series [1] was < 1 µM; in series [2], > 10 µM; in series [3] it was > 10 µM. For the same compound, the IC50 in series [4] is < 10 µM.

With `COc1ccc2ccccc2c1-c1coc(NC(C)=O)n1` [Compound 25, N-[4-(2-methoxy-naphthalen-1-yl)-oxazol-2-yl]-acetamide], the values for the Ki in series [1], in series [2] and in series [3] were < 0.1 µM, > 1 µM and > 1 µM, respectively. In series [4], the IC50 was < 1 µM.
